Measurements: US12227496B2 (BRISTOL-MYERS SQUIBB COMPANY, priority 2019, dated 2025)

Target: T1, human FXR (Homo sapiens, UniProt Q96RI1)
T1 construct: expressed in transfected cells; host or cells: HEK293 cells stably carrying a 5xGal4-response-element firefly luciferase reporter, transiently transfected with pcDNA3.1-Gal4-FXR
T1 sequence (Q96RI1 262-486 limits assumed): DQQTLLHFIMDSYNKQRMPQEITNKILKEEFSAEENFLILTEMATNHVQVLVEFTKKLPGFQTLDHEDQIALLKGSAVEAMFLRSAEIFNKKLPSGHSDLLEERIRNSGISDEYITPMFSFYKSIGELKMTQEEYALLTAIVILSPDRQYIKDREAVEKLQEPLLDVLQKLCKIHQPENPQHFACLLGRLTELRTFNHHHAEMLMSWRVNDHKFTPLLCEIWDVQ
Experiment: transient human FXR/Gal4-luciferase reporter assay
Type: cell-based
Settings: Gal4-hFXR LBD fusion, luciferase reporter in HEK293 cells; response relative to 8 μM GW-4064
Protocol: A Gal4-hFXR fusion construct reporter system was used as the primary assay to characterize compound activity. A construct including 5 copies of the Gal4 promoter response element upstream of a firefly luciferase reporter cDNA was stably expressed in HEK293 cells. This reporter cell line was maintained in Dulbecco's Modified Eagle's medium (DMEM; Gibco) supplemented with 1% penicillin-streptomycin (P/S) solution, 500 μg/mL Zeocin and 10% charcoal/dextran-treated fetal bovine serum (cs-FBS) at 37° C. in a humidified 5% CO2 atmosphere. […] The day prior to transfection, the reporter cells in culture are detached from the plate with trypsin and plated into a T75 flask at a sufficient density to achieve approximately 90% confluence the next morning. […] The mixture is further diluted with 10 mL of a solution comprised of DMEM, 10% cs-FBS, and 1% P/S immediately prior to transferring to the cells. The maintenance culture media is aspirated from the cells and the final transfection mixture is added before the cells are incubated overnight at 37° C. in a humidified 5% CO2 atmosphere. This protocol can be scaled up, and the transiently transfected cells can be cryopreserved in an assay-ready format. For compound testing, 100 nL of the compounds (serial dilutions in DMSO) are dispensed with an Echo acoustic dispenser (Labcyte) into the wells of a Corning/Costar clear bottom 384-well white plate. The transfected cells are harvested, counted, and diluted such that 10-25,000 cells in 25 μL are plated into each well of the 384-well compound assay plate. The compound-treated cells are incubated overnight at 37° C. in a humidified 5% CO2 atmosphere. The next morning 25 μL of Steady-Glo (Promega) are added to each well of the plate, the mixture is incubated for 15 min. with shaking, and luminescence is measured on an Envision (Perkin Elmer) plate reader.

| Structure (SMILES) | EC50 [nM] |
| --- | --- |
| O=C(N1CCCCC1)N(CC12CCC(c3nc(C4CC4)no3)(CC1)CC2)c1cccc(-c2nc(C3CC3)no2)c1 [Example 57, N-((4-(3-cyclopropyl-1,2,4-oxadiazol-5-yl)bicyclo[2.2.2]octan-1-yl)methyl)-N-(3-(3-cyclopropyl-1,2,4-oxadiazol-5-yl)phenyl) piperidine-1-carboxamide] | 819 |
| Cc1nc2ccc(-c3cccc(N(CC45CCC(c6nc(C7CC7)no6)(CC4)CC5)C(=O)C4CCCCC4)c3)cc2s1 [Example 90, N-((4-(3-cyclopropyl-1,2,4-oxadiazol-5-yl)bicyclo[2.2.2]octan-1-yl)methyl)-N-(3-(2-methylbenzo[d]thiazol-6-yl)phenyl)cyclohexanecarboxamide] | 36 |
| Cn1nc(C2CC2)cc1C12CCC(CN(C(=O)C3CCOCC3)c3cccc(-c4ccc(S(C)(=O)=O)cc4)c3)(CC1)CC2 [Example 134, N-((4-(3-cyclopropyl-1-methyl-1H-pyrazol-5-yl)bicyclo[2.2.2]octan-1-yl)methyl)-N-(4′-(methylsulfonyl)-[1,1′-biphenyl]-3-yl)tetrahydro-2H-pyran-4-carboxamide] | 511 |
| CCOc1ncc(-c2cccc(N(CC34CCC(c5noc(C(C)(C)C)n5)(CC3)CC4)C(=O)C3CCOCC3)c2)cn1 [Example 88, N-((4-(5-(tert-butyl)-1,2,4-oxadiazol-3-yl)bicyclo[2.2.2]octan-1-yl)methyl)-N-(3-(2-ethoxypyrimidin-5-yl)phenyl)tetrahydro-2H-pyran-4-carboxamide] | 227 |
| COc1cc(-c2cccc(N(CC34CCC(c5nnc(C)s5)(CC3)CC4)C(=O)C3CCC(F)(F)CC3)c2)ccn1 [Example 82, 4,4-difluoro-N-(3-(2-methoxypyridin-4-yl)phenyl)-N-((4-(5-methyl-1,3,4-thiadiazol-2-yl)bicyclo[2.2.2]octan-1-yl)methyl)cyclohexane-1-carboxamide] | 4760 |
| CCOc1ncc(-c2cccc(N(CC34CCC(c5nc(C6CC6)no5)(CC3)CC4)C(=O)C3CCC(F)(F)CC3)c2)o1 [Example 9, N-((4-(3-cyclopropyl-1,2,4-oxadiazol-5-yl)bicyclo[2.2.2]octan-1-yl)methyl)-N-(3-(2-ethoxyoxazol-5-yl)phenyl)-4,4-difluorocyclohexane-1-carboxamide] | 142 |
| CN1CCC(C(=O)N(CC23CCC(c4cc(C5CC5)nn4C)(CC2)CC3)c2cccc(-c3cc(C4CC4)on3)c2)CC1 [Example 133, N-((4-(3-cyclopropyl-1-methyl-1H-pyrazol-5-yl)bicyclo[2.2.2]octan-1-yl)methyl)-N-(3-(5-cyclopropylisoxazol-3-yl)phenyl)-1-methylpiperidine-4-carboxamide] | 2000 |
| O=C(C1CCC(F)(F)CC1)N(CC12CCC(c3nc(CC4CC4)no3)(CC1)CC2)c1cccc(-c2nc(CC3CC3)no2)c1 [Example 42, N-((4-(3-(cyclopropylmethyl)-1,2,4-oxadiazol-5-yl)bicyclo[2.2.2]octan-1-yl)methyl)-N-(3-(3-(cyclopropylmethyl)-1,2,4-oxadiazol-5-yl)phenyl)-4,4-difluorocyclohexane-1-carboxamide] | 536 |
| COc1ncc(-c2cccc(N(CC34CCC(c5nc(C)no5)(CC3)CC4)C(=O)C3CCCCC3)c2)o1 [Example 6, N-(3-(2-methoxyoxazol-5-yl)phenyl)-N-((4-(3-methyl-1,2,4-oxadiazol-5-yl)bicyclo[2.2.2]octan-1-yl)methyl)cyclohexanecarboxamide] | 118 |
| CCOc1ncc(-c2cccc(N(CC34CCC(c5nc(C(C)(C)C)no5)(CC3)CC4)C(=O)c3cc(Cl)cc(Cl)c3)c2)cn1 [Example 125, N-((4-(3-(tert-Butyl)-1,2,4-oxadiazol-5-yl)bicyclo[2.2.2]octan-1-yl)methyl)-3,5-dichloro-N-(3-(2-ethoxypyrimidin-5-yl)phenyl)benzamide] | 726 |
| CCOc1nnc(-c2cccc(N(CC34CCC(c5nc(C6CC6)no5)(CC3)CC4)C(=O)C3CCC(F)(F)CC3)c2)o1 [Example 39, N-((4-(3-cyclopropyl-1,2,4-oxadiazol-5-yl)bicyclo[2.2.2]octan-1-yl)methyl)-N-(3-(5-ethoxy-1,3,4-oxadiazol-2-yl)phenyl)-4,4-difluorocyclohexane-1-carboxamide] | 130 |
| CC(C)(C)c1noc(C23CCC(CN(C(=O)C4CCC(F)(F)CC4)c4cccc(-c5nc(C6CC6)no5)c4)(CC2)CC3)n1 [Example 103, N-((4-(3-(tert-butyl)-1,2,4-oxadiazol-5-yl)bicyclo[2.2.2]octan-1-yl)methyl)-N-(3-(3-cyclopropyl-1,2,4-oxadiazol-5-yl)phenyl)-4,4-difluorocyclohexane-1-carboxamide] | 250 |
| Cn1nc(C2CC2)cc1C12CCC(CN(C(=O)C3CCOCC3)c3cccc(-c4cc(C5CC5)no4)c3)(CC1)CC2 [Example 139, N-((4-(3-cyclopropyl-1-methyl-1H-pyrazol-5-yl)bicyclo[2.2.2]octan-1-yl)methyl)-N-(3-(3-cyclopropylisoxazol-5-yl)phenyl)tetrahydro-2H-pyran-4-carboxamide] | 87 |
| CC(C)(C)c1noc(C23CCC(CN(C(=O)C4CCS(=O)(=O)CC4)c4cccc(-c5cc(C6CC6)on5)c4)(CC2)CC3)n1 [Example 160, N-((4-(3-(tert-butyl)-1,2,4-oxadiazol-5-yl)bicyclo[2.2.2]octan-1-yl)methyl)-N-(3-(5-cyclopropylisoxazol-3-yl)phenyl)tetrahydro-2H-thiopyran-4-carboxamide 1,1-dioxide] | 701 |
| COc1cc(-c2cccc(N(CC34CCC(c5nc(C)no5)(CC3)CC4)C(=O)C3CCCCC3)c2)no1 [Example 11, N-(3-(5-methoxyisoxazol-3-yl)phenyl)-N-((4-(3-methyl-1,2,4-oxadiazol-5-yl)bicyclo[2.2.2]octan-1-yl)methyl)cyclohexanecarboxamide] | 660 |
| COc1cc(-c2cccc(N(CC34CCC(c5nc(C)no5)(CC3)CC4)C(=O)C3CCCCC3)c2)ccn1 [Example 73, N-(3-(2-methoxypyridin-4-yl)phenyl)-N-((4-(3-methyl-1,2,4-oxadiazol-5-yl)bicyclo[2.2.2]octan-1-yl)methyl)cyclohexane carboxamide] | 517 |
| O=C(C1CCC(F)(F)CC1)N(CC12CCC(c3noc(C4CC(O)(C(F)(F)F)C4)n3)(CC1)CC2)c1cccc(-c2cnc(C3CC3)nc2)c1 (stereo not shown) [Example 120, N-(3-(2-cyclopropylpyrimidin-5-yl)phenyl)-4,4-difluoro-N-((4-(5-(3-hydroxy-3-(trifluoromethyl)cyclobutyl)-1,2,4-oxadiazol-3-yl)bicyclo[2.2.2]octan-1-yl)methyl)cyclohexane-1-carboxamide] | 2000 |
| O=C(C1CCS(=O)(=O)CC1)N(CC12CCC(c3nc(C4CC4)no3)(CC1)CC2)c1cccc(-c2cc(C3CC3)no2)c1 [Example 152, N-((4-(3-cyclopropyl-1,2,4-oxadiazol-5-yl)bicyclo[2.2.2]octan-1-yl)methyl)-N-(3-(3-cyclopropylisoxazol-5-yl)phenyl)tetrahydro-2H-thiopyran-4-carboxamide 1,1-dioxide] | 662 |
| CC(C)(C)OC(=O)N1CCC(C(=O)N(CC23CCC(c4nc(C5CC5)no4)(CC2)CC3)c2cccc(-c3nc(C(F)F)co3)c2)CC1 [Example 38, tert-butyl 4-(((4-(3-cyclopropyl-1,2,4-oxadiazol-5-yl)bicyclo[2.2.2]octan-1-yl)methyl)(3-(4-(difluoromethyl)oxazol-2-yl)phenyl)carbamoyl) piperidine-1-carboxylate] | 4390 |
